The test system of data set [1] is S. aureus ST1065. The experiment in a line: Time-kill assay. To be noted: for time to complete killing: peptide at two-fold above the MIC (MIC 6.25 µM), ∼2–3 10^6 cfu/mL in PBS, two experiments in triplicates. Type of data set: cell-based. Here is the method: (§1) The time-kill kinetics of phylloseptins-S against the Gram-negative bacteria E. coli ML-35p and the Gram-positive strain S. aureus ST1065 were evaluated as previously described with a dose of peptide corresponding to the MIC and two-fold above the MIC. Two experiments were realized in triplicates.
(§2) Figure 4 Time-kill curves of PLS-S1 (S1), -S2 (S2), and -S4 (S4). […] Controls correspond to bacteria incubated in PBS without peptide. The data are the means ± S.E.M. of two experiments carried out in triplicates.

Data set [2] concerns S. aureus ST1065. The experiment in a line: Permeabilization of the cytoplasmic membrane (ONPG hydrolysis). Type of data set: cell-based. To be noted: ONP production at 405 nm from ONPG; compared with 10 µM dermaseptin B2 as positive control. Here is the method: (§3) PLS-induced permeabilization of the cytoplasmic plasma membranes of E. coli ML-35p and S. aureus ST1065 was measured by the rate of production of o-nitrophenol (ONP) at 405 nm, following hydrolysis of o-nitrophenyl β-D-galactopyranoside (ONPG) by β-galactosidase. Dermaseptin B2 (10 µM) and PBS were used as positive and negative controls, respectively.
(§4) PLS-induced permeabilization of the cytoplasmic membranes of S. aureus ST1065 and E. coli ML-35p was analyzed by incubating the bacteria, which express β-galactosidase constitutively, with different concentrations of the peptides (S. aureus ST1065: PLS-S1, -S2, and -S4; E. coli ML-35p: PLS-S2 and -S4) and measuring the time-dependent hydrolysis of the small chromogenic substrate o-nitrophenyl-β-D-galactopyranoside (ONPG) into o-nitrophenol (ONP) by cytoplasmic β-galactosidase (Fig. 5). The three peptides permeabilized the bacterial cytoplasmic membrane with increasing severity according to the time and the peptide concentration. […] To investigate the mechanism of permeabilization, E. coli ML-35p were incubated with PLS-S2 (30 and 100 µM) and PLS-S4 (25 and 100 µM) for 60 min and β-galactosidase activity was measured after removing bacteria by centrifugation and adding ONPG to the supernatant.
(§5) Figure 5 Kinetics of the cytoplasmic membrane leakage of E. coli ML-35p and S. aureus ST1065 after incubation with different concentrations of active phylloseptins-S. The membrane leakage was determined by measuring the production of o-nitrophenol at 405 nm following hydrolysis of ONPG by the cytoplasmic bacterial β-galactosidase. Data are expressed as the mean ± S.E.M of two experiments carried out in triplicates after subtraction of the negative control values (w/o peptide) from the test values. Control panels display the kinetics obtained without peptide (negative control) and with 10 µM dermaseptin B2 (Drs B2, positive control). For E. coli ML-35p, the extracellular release of β-galactosidase was also measured as the production of o-nitrophenol at 405 nm after incubation (60 min) of E. coli cells with PLS-S2 (30 and 100 µM) and PLS-S4 (25 and 100 µM), removing of bacteria by centrifugation and adding ONPG to the supernatant. The negative (w/o peptide) and positive (10 µM Drs B2) controls are indicated for comparison. Results are expressed as the mean ± S.E.M of one representative experiment performed in triplicates.

Data set [3] is described as follows: Circular dichroism spectroscopy with DMPC/DMPG (3:1) large unilamellar vesicles. The following applies: CD, peptide 30 µM, DMPC/DMPG (3:1) LUVs 1 mg/mL in PBS pH 7.3. Type of data set: physicochemical. The procedure: The far-ultraviolet circular dichroism (CD) spectra were recorded as described. Phylloseptins-S (30 µM) were solubilized either in 80 mM sodium dodecyl sulfate (SDS) or in phosphate-buffered saline (PBS: 10 mM phosphate, pH 7.3) containing 1 mg/mL of large unilamellar vesicles (LUVs) of 1,2-dimyristoyl-sn-glycero-3-phosphocholine (DMPC) and 1,2-dimyristoyl-sn-glycero-3-phosphoglycerol (DMPG) (3∶1 mol/mol). DMPC and DMPG were purchased from Avanti Polar Lipids, Inc. Each spectrum was the average of four scans. CD measurements are reported as Δ/n, where Δ is the dichroic increment and n is the number of residues in the peptide.
Figure 6 Circular dichroism spectra of synthetic phylloseptins-S (30 µM). (A) DMPC/DMPG (3∶1) large unilamellar vesicles in PBS (1 mg/mL). (B) 80 mM SDS. CD measurements are reported as the dichroic increment (Δε) per residue.
On the technique in general: Circular dichroism is widely used to follow secondary structure.

In another data set the test system is Escherichia coli. The following applies: cited from earlier work. From the text:
The 16–19 amino acid residue phylloseptins (PLSs) are a new emerging family of cationic antimicrobial peptides that belong to the dermaseptin superfamily, and whose members have been isolated from various genera of the Phyllomedusinae subfamily (Agalychnis, Phasmahyla, and Phyllomedusa), [10]–[16]. Like the archetypal dermaseptins (sensu stricto), these peptides seem to occur in multiple paralogous forms in each species with small differences in amino acid composition. Although only a few of these peptides were properly tested against various microorganisms, significant differences i ...

Data set [4] concerns E. coli ML-35p. The experiment in a line: Time-kill assay. Type of data set: cell-based. To be noted: MIC (25 µM) and two-fold above the MIC, in PBS; two experiments in triplicates. Here is the method: as §1, §2
The subject of data set [5] is E. coli ML-35p. The experiment in a line: Permeabilization of the cytoplasmic membrane (ONPG hydrolysis). Type of data set: cell-based. The following applies: ONP production at 405 nm from ONPG; compared with 10 µM dermaseptin B2 as positive control. Here is the method:
as §3, §4, §5

Data set [6] relates to E. coli ML-35p. The experiment in a line: Extracellular release of β-galactosidase. Type of data set: cell-based. To be noted: 60 min incubation; PLS-S2 30 and 100 µM, PLS-S4 25 and 100 µM, dermaseptin B2 10 µM; ONPG added to supernatant. Here is the method:
as §4
Figure 5 Kinetics of the cytoplasmic membrane leakage of E. coli ML-35p and S. aureus ST1065 after incubation with different concentrations of active phylloseptins-S. The membrane leakage was determined by measuring the production of o-nitrophenol at 405 nm following hydrolysis of ONPG by the cytoplasmic bacterial β-galactosidase. […] Results are expressed as the mean ± S.E.M of one representative experiment performed in triplicates.

We go through three substances from PMC3742671, “Structure, Antimicrobial Activities and Mode of Interaction with Membranes of Bovel Phylloseptins from the Painted-Belly Leaf Frog, Phyllomedusa sauvagii” (PLoS ONE, 2013).

As a reminder, the MIC is the lowest concentration found to suppress growth.

Ends that are not written are not given here.

Consider FLSLIPHIVSGVASIAKHF-NH2 [PLS-S1], for which, in the data set with S. aureus ST1065 [1], the “time to complete killing” value was ≤ 5 min. Also, in the data set on S. aureus ST1065 [2], the “permeabilization of the cytoplasmic membrane (in words)” value (shortened to “permeabilization”) was “as efficient as with dermaseptin-B2”. The helix content in data set [3] was found to be 70%. For the same substance, in the data set with Escherichia coli, the MIC was 80 µM.
On to FLSLIPHIVSGVASLAKHF-NH2 [PLS-S2], for which the “killing kinetics (in words)” value in the data set on E. coli ML-35p [4] is “Almost similar rapid killing kinetics”. In the data set on S. aureus ST1065 [1], the “time to complete killing” value was ≤ 5 min. Further, the “permeabilization” value in the data set on E. coli ML-35p [5] was “lower efficiency”; in the data set on S. aureus ST1065 [2] it was “as efficient as with dermaseptin-B2”. In addition, the “extracellular release of β-galactosidase (in words)” value in the data set with E. coli ML-35p [6] is given as “dose-dependent release of β-galactosidase”. The helix content in data set [3] is listed as 80%.
FLSMIPHIVSGVAALAKHL-NH2 [PLS-S4]: the “killing kinetics (in words)” value in the data set with E. coli ML-35p [4] is “Almost similar rapid killing kinetics”; in the data set on S. aureus ST1065 [1] (compared with PLS-S1 and -S2, MIC and two-fold above the MIC, in PBS), “slower”. Moreover, the “permeabilization” value in the data set with E. coli ML-35p [5] and in the data set on S. aureus ST1065 [2] was “as efficient as with dermaseptin-B2” each time. The “extracellular release of β-galactosidase (in words)” value in the data set on E. coli ML-35p [6] was “dose-dependent release of β-galactosidase”. This substance also yielded a helix content in data set [3] of 68%.
